Test results as given in ChEMBL document CHEMBL5030558, “Optimization and Evaluation of Novel Antifungal Agents for the Treatment of Fungal Infection” (J Med Chem, 2021).
In brackets after ≈: the same amount, converted by molar mass.

How the values were obtained:
Nakaseomyces glabratus = experiment: Antifungal activity against Candida glabrata BG2 assessed as reduction in fungal growth incubated for 48 hrs by CLSI based broth microdilution method; assay type: functional
Aspergillus fumigatus = experiment: Antifungal activity against Aspergillus fumigatus AF293 assessed as reduction in fungal growth incubated for 48 hrs by CLSI based broth microdilution method; assay type: functional
Candida albicans = experiment: Antifungal activity against Candida albicans ATCC SC5314 assessed as reduction in fungal growth incubated for 48 hrs by CLSI based broth microdilution method; assay type: functional
Cryptococcus neoformans = experiment: Antifungal activity against Cryptococcus neoformans H99 assessed as reduction in fungal growth incubated for 72 hrs by CLSI based broth microdilution method; assay type: functional
[1] = Stability in human liver microsomes assessed as parent compound remaining after 30 mins; assay type: ADME, Microsome; conditions: read-out: Stability

Structure (SMILES) | MIC (Nakaseomyces glabratus) | MIC (Aspergillus fumigatus) | MIC (Candida albicans) | MIC (Cryptococcus neoformans) | remaining at 0.5 h [1]
CC(C)(NCCc1ccc(OCc2cccc(F)c2)cc1)C(N)=O.CS(=O)(=O)O | > 128 µg/mL | > 128 µg/mL | > 128 µg/mL | 128 µg/mL | 
Nc1ncccc1C(=O)NCCc1ccc(-c2ccc(Cl)c(Cl)c2)cc1 | 128 µg/mL (≈ 331 µM) | 128 µg/mL (≈ 331 µM) | 128 µg/mL (≈ 331 µM) | 128 µg/mL (≈ 331 µM) | 
CC(C)(NCCc1ccc(OCc2cccc(C(F)(F)F)c2)cc1)C(N)=O.CS(=O)(=O)O | 128 µg/mL | 128 µg/mL | 128 µg/mL | 64 µg/mL | 
O=C(NCCc1ccc(-c2ccc(Cl)c(Cl)c2)cc1)c1cccnc1 | 128 µg/mL (≈ 345 µM) | 128 µg/mL (≈ 345 µM) | 128 µg/mL (≈ 345 µM) | 128 µg/mL (≈ 345 µM) | 
CC(C)(NCCc1ccc(OCc2ccc(C(F)(F)F)cc2)cc1)C(N)=O.CS(=O)(=O)O | 128 µg/mL | 128 µg/mL | 128 µg/mL | 64 µg/mL | 
CC(NCCc1ccc(OCc2ccccc2F)cc1)C(N)=O.CS(=O)(=O)O (centres undefined) | > 128 µg/mL | > 128 µg/mL | > 128 µg/mL | 128 µg/mL | 
CCC(N)C(=O)NCCc1ccc(-c2ccc(F)c(F)c2)cc1.Cl (racemic) | 64 µg/mL | 64 µg/mL | 32 µg/mL | 64 µg/mL | 
CC(NCCc1ccc(OCc2ccc(F)cc2)cc1)C(N)=O.CS(=O)(=O)O (racemic) | > 128 µg/mL | > 128 µg/mL | > 128 µg/mL | 128 µg/mL | 
CCC(NC)C(=O)NCCc1ccc(-c2ccc(C(F)(F)F)cc2)cc1.Cl (racemic) | 64 µg/mL | 64 µg/mL | 32 µg/mL | 16 µg/mL | 
CC(NCCc1ccc(OCc2ccc(Cl)cc2)cc1)C(N)=O.CS(=O)(=O)O (racemic) | > 128 µg/mL | > 128 µg/mL | > 128 µg/mL | 64 µg/mL | 
CC(NCCc1ccc(OCc2ccc(C(F)(F)F)cc2)cc1)C(N)=O.CS(=O)(=O)O (racemic) | 128 µg/mL | 64 µg/mL | 128 µg/mL | 32 µg/mL | 
CC(NCCc1ccc(OCc2cccc(Cl)c2)cc1)C(N)=O.CS(=O)(=O)O (racemic) | > 128 µg/mL | 128 µg/mL | 128 µg/mL | 32 µg/mL | 
CC(NCCc1ccc(-c2ccc(C(F)(F)F)cc2)cc1)C(N)=O.CS(=O)(=O)O (racemic) | 64 µg/mL | 32 µg/mL | 128 µg/mL | 32 µg/mL | 
Cl.O=C(NCCc1ccc(-c2ccc(C(F)(F)F)cc2)cc1)C1CCNC1 (racemic) | 64 µg/mL | 64 µg/mL | 32 µg/mL | 64 µg/mL | 
CC(NCCc1ccc(OCc2ccccc2C(F)(F)F)cc1)C(N)=O.CS(=O)(=O)O (racemic) | > 128 µg/mL | 64 µg/mL | > 128 µg/mL | 64 µg/mL | 
CCCC(N)C(=O)NCCc1ccc(-c2ccc(F)c(F)c2)cc1.Cl (racemic) | 64 µg/mL | 64 µg/mL | 16 µg/mL | 32 µg/mL | > 85%
CC(NCCc1ccc(-c2cccc(OC(F)(F)F)c2)cc1)C(N)=O.CS(=O)(=O)O (racemic) | 64 µg/mL | 16 µg/mL | > 128 µg/mL | 32 µg/mL | 
CC(NCCc1ccc(Oc2ccc(C(F)(F)F)cc2)cc1)C(N)=O.CS(=O)(=O)O (racemic) | 128 µg/mL | 64 µg/mL | 128 µg/mL | 32 µg/mL | 
CCCC(NC)C(=O)NCCc1ccc(OCc2ccc(C(F)(F)F)cc2)cc1.Cl (racemic) | 64 µg/mL | 64 µg/mL | 64 µg/mL | 16 µg/mL | 
CCCC(NC)C(=O)NCCc1ccc(-c2ccc(OC(F)(F)F)cc2)cc1.Cl (racemic) | 128 µg/mL | 16 µg/mL | 32 µg/mL | 8 µg/mL | 
CC(NCCc1ccc(OCc2ccccc2Cl)cc1)C(N)=O.CS(=O)(=O)O (racemic) | > 128 µg/mL | 128 µg/mL | > 128 µg/mL | 32 µg/mL | 
CC(=O)N1CCC(C(=O)NCCc2ccc(-c3ccc(C(F)(F)F)cc3)cc2)C1 (racemic) | > 128 µg/mL | > 128 µg/mL | > 128 µg/mL | > 128 µg/mL | 
Cl.O=C(NCCc1ccc(-c2ccc(C(F)(F)F)cc2)cc1)C1CCCN1 (racemic) | 32 µg/mL | 32 µg/mL | 32 µg/mL | 16 µg/mL | 
COc1cccc(COc2ccc(CCNC(C)C(N)=O)cc2)c1.CS(=O)(=O)O (racemic) | > 128 µg/mL | > 128 µg/mL | 128 µg/mL | 128 µg/mL | 
CC(NCCc1ccc(OCc2ccc(Cl)c(Cl)c2)cc1)C(N)=O.CS(=O)(=O)O (racemic) | 32 µg/mL | 32 µg/mL | 32 µg/mL | 8 µg/mL | 
CCCC(NC)C(=O)NCCc1ccc(OCc2ccc(Cl)c(Cl)c2)cc1.Cl (racemic) | 32 µg/mL | 32 µg/mL | 32 µg/mL | 8 µg/mL | 
CC(NCCc1ccc(-c2ccc(OC(F)(F)F)cc2)cc1)C(N)=O.CS(=O)(=O)O (racemic) | > 128 µg/mL | > 128 µg/mL | 36 µg/mL | 16 µg/mL | 
CC(=O)N1CCCC1C(=O)NCCc1ccc(-c2ccc(C(F)(F)F)cc2)cc1 (racemic) | > 128 µg/mL | > 128 µg/mL | > 128 µg/mL | > 128 µg/mL | 
CC(NCCc1ccc(OCc2cccc(F)c2)cc1)C(N)=O.CS(=O)(=O)O (racemic) | > 128 µg/mL | > 128 µg/mL | > 128 µg/mL | 64 µg/mL | 
CC(NCCc1ccc(OCc2cccc(C(F)(F)F)c2)cc1)C(N)=O.CS(=O)(=O)O (racemic) | 128 µg/mL | 64 µg/mL | 128 µg/mL | 32 µg/mL | 

Results, then the compound that gave them:

MIC (Nakaseomyces glabratus) | MIC (Aspergillus fumigatus) | MIC (Candida albicans) | MIC (Cryptococcus neoformans) | remaining at 0.5 h [1] | Structure (SMILES)
16 µg/mL | 16 µg/mL | 16 µg/mL | 8 µg/mL |  | Cl.O=C(NCCc1ccc(-c2ccc(Cl)c(Cl)c2)cc1)C1CCCN1 (centres undefined)
16 µg/mL | 32 µg/mL | 16 µg/mL | 16 µg/mL |  | CCC(N)C(=O)NCCc1ccc(-c2ccc(OC(F)(F)F)cc2)cc1.Cl (racemic)
16 µg/mL | 8 µg/mL | 16 µg/mL | 4 µg/mL |  | CCCCC(NC)C(=O)NCCc1ccc(-c2ccc(OC(F)(F)F)cc2)cc1.Cl (racemic)
32 µg/mL | 32 µg/mL | 32 µg/mL | 8 µg/mL |  | CC(NCCc1ccc(Oc2ccc(Cl)c(Cl)c2)cc1)C(N)=O.CS(=O)(=O)O (racemic)
8 µg/mL | 8 µg/mL | 8 µg/mL | 4 µg/mL |  | CCCCC(N)C(=O)NCCc1ccc(-c2ccc(OC(F)(F)F)cc2)cc1.Cl (racemic)
16 µg/mL | 8 µg/mL | 16 µg/mL | 8 µg/mL |  | CC(NCCc1ccc(-c2ccc(Cl)c(Cl)c2)cc1)C(N)=O.CS(=O)(=O)O (racemic)
16 µg/mL | 16 µg/mL | 16 µg/mL | 8 µg/mL |  | CCCC(N)C(=O)NCCc1ccc(Oc2ccc(Cl)c(Cl)c2)cc1.Cl (racemic)
16 µg/mL | 32 µg/mL | 16 µg/mL | 16 µg/mL |  | CCC(N)C(=O)NCCc1ccc(-c2ccc(C(F)(F)F)cc2)cc1.Cl (racemic)
32 µg/mL | 32 µg/mL | 32 µg/mL | 16 µg/mL |  | CCCC(N)C(=O)NCCc1ccc(Oc2ccc(C(F)(F)F)cc2)cc1.Cl (racemic)
32 µg/mL | 32 µg/mL | 32 µg/mL | 8 µg/mL |  | CC(NCCc1ccc(OCc2ccc(Cl)cc2Cl)cc1)C(N)=O.CS(=O)(=O)O (racemic)
32 µg/mL | 32 µg/mL | 16 µg/mL | 16 µg/mL |  | CCCCC(N)C(=O)NCCc1ccc(-c2ccc(F)c(F)c2)cc1.Cl (racemic)
16 µg/mL | 16 µg/mL | 16 µg/mL | 4 µg/mL |  | CCCCC(NC)C(=O)NCCc1ccc(-c2ccc(C(F)(F)F)cc2)cc1.Cl (racemic)
32 µg/mL | 32 µg/mL | 32 µg/mL | 16 µg/mL |  | CCC(NC)C(=O)NCCc1ccc(-c2ccc(OC(F)(F)F)cc2)cc1.Cl (racemic)
16 µg/mL (≈ 40.9 µM) | 16 µg/mL (≈ 40.9 µM) | 128 µg/mL (≈ 327 µM) | 8 µg/mL (≈ 20.4 µM) |  | CN1CCCCC1C(=O)NCCc1ccc(-c2ccc(Cl)c(Cl)c2)cc1 (racemic)
16 µg/mL (≈ 42.4 µM) | 16 µg/mL (≈ 42.4 µM) | 128 µg/mL (≈ 339 µM) | 8 µg/mL (≈ 21.2 µM) |  | CN1CCCC1C(=O)NCCc1ccc(-c2ccc(Cl)c(Cl)c2)cc1 (racemic)
8 µg/mL | 8 µg/mL | 8 µg/mL | 4 µg/mL |  | CCCCC(N)C(=O)NCCc1ccc(-c2ccc(C(F)(F)F)cc2)cc1.Cl (racemic)
16 µg/mL | 16 µg/mL | 16 µg/mL | 8 µg/mL |  | CCC(NC)C(=O)NCCc1ccc(-c2ccc(Cl)c(Cl)c2)cc1.Cl (racemic)
16 µg/mL | 16 µg/mL | 8 µg/mL | 8 µg/mL |  | CCCC(N)C(=O)NCCc1ccc(OCc2ccc(Cl)c(Cl)c2)cc1.Cl (racemic)
16 µg/mL | 16 µg/mL | 8 µg/mL | 8 µg/mL |  | CCC(N)C(=O)NCCc1ccc(-c2ccc(Cl)c(Cl)c2)cc1.Cl (racemic)
16 µg/mL | 16 µg/mL | 16 µg/mL | 8 µg/mL |  | Cl.O=C(NCCc1ccc(-c2ccc(Cl)c(Cl)c2)cc1)C1CCCCN1 (racemic)
16 µg/mL | 16 µg/mL | 8 µg/mL | 8 µg/mL |  | CCCC(N)C(=O)NCCc1ccc(-c2ccc(C(F)(F)F)cc2)cc1.Cl (racemic)
16 µg/mL | 16 µg/mL | 8 µg/mL | 4 µg/mL |  | CCCC(N)C(=O)NCCc1ccc(-c2ccc(OC(F)(F)F)cc2)cc1.Cl (racemic)
